Some test systems named below: HCC 2998; IGROV-1; SF-539; Malme-3M; SN12C; UACC-62; NCI-H23; NCI-H522; LXFL 529; SNB-75; HOP-62; HOP-92; EKVX; HL-60; RPMI-8226.
What all share (assay): NCI-60 cell line screen, 48 h

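Dose response: 5 concentrations. Exposure: 48 h. Format: 96-well plates. Endpoint: linear interpolation; highest concentration if not reached. GI50 marks 50% less growth.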 The source made the active and inactive calls. No stated cut-off is given here; in the data, active = GI50 up to about 1.1 µM and inactive = higher. Where only a bound is given, the exact number is not on record here.

Take `Cc1nc(Nc2ccc(Cl)cc2)sc1C(=O)Nc1cccc2c(=O)[nH][nH]c(=O)c12`: the GI50 was 39.5 µM (inactive) in the assay on HCC 2998; 25.2 µM (inactive) with IGROV-1; 36.7 µM (inactive) in the assay with SF-539; 36 µM (inactive) in the assay with Malme-3M; 36.1 µM (inactive) with SN12C; 0.439 µM (active) in the assay with UACC-62. Also, the GI50 is 16.4 µM (inactive) with NCI-H23; 23.5 µM (inactive) in the assay on NCI-H522; 13.1 µM (inactive) in the assay on LXFL 529; 28 µM (inactive) in the assay with SNB-75; 35.6 µM (inactive) in the assay with HOP-62; 13.3 µM (inactive) with HOP-92. Moreover, the GI50 in the assay with EKVX was 8.34 µM (inactive); with HL-60, 8.75 µM (inactive).
Take `c1ccc2c(c1)cc1n2CC2CN=NC12` (configuration not stated): the GI50 in the assay on HCC 2998, in the assay with RPMI-8226, in the assay with IGROV-1, in the assay with SF-539, in the assay with Malme-3M and in the assay with SN12C was > 100 µM (inactive) in each case. For the same compound, the GI50 with UACC-62 was > 100 µM (inactive); with NCI-H522, > 100 µM (inactive); in the assay on LXFL 529 it was > 100 µM (inactive); in the assay with SNB-75, 47.8 µM (inactive); in the assay on HOP-62 it was > 100 µM (inactive); in the assay with EKVX, > 100 µM (inactive). Besides, in the assay with HL-60, the GI50 was > 100 µM (inactive).
Take `CCOP(=O)(OCC)C1=NC=CC=CC1n1c(-c2ccccc2)nn(CC)c1=O` (configuration not stated): the GI50 with HCC 2998, in the assay on RPMI-8226, in the assay on IGROV-1, in the assay on SF-539, with Malme-3M and in the assay with SN12C was > 100 µM (inactive) throughout. Also, the GI50 in the assay on UACC-62 was > 100 µM (inactive); with NCI-H23, > 100 µM (inactive); with NCI-H522 it was > 100 µM (inactive); in the assay with LXFL 529 it was > 100 µM (inactive); in the assay with HOP-62 it was > 100 µM (inactive); in the assay with HOP-92, 7.06 µM (inactive). Further, the GI50 with EKVX and with HL-60 was > 100 µM (inactive) in each case.
`CC1=C(C(=O)Nc2ccc([N+](=O)[O-])cc2)C(c2ccccc2F)C(C(=O)Nc2ccc([N+](=O)[O-])cc2)=C(C)N1`: the GI50 with HCC 2998 was 5.94 µM (inactive); in the assay on RPMI-8226, 3.8 µM (inactive); with IGROV-1, 12.8 µM (inactive); in the assay with SF-539, 17.3 µM (inactive); in the assay with Malme-3M it was 13.7 µM (inactive); with SN12C, 8.18 µM (inactive). The GI50 with NCI-H23 is 11.2 µM (inactive); in the assay on NCI-H522, 8.2 µM (inactive); in the assay with LXFL 529, 6.92 µM (inactive); with SNB-75, 13.9 µM (inactive); with HOP-62, 15 µM (inactive); in the assay on HOP-92, 4.45 µM (inactive). In addition, the GI50 with EKVX was 8.81 µM (inactive); in the assay with HL-60, 4.7 µM (inactive).
Turning to `CC1C[C@]2(C[C@@H](C)C(=O)O2)O[C@@H]2CC3(C)[C@@H]4CCC5C(C)(C)OC(=O)C[C@H]6OO[C@]4(CC[C@]3(C)C12)CC56O` (some centres not stated), the GI50 with HCC 2998, in the assay on RPMI-8226, in the assay with IGROV-1, in the assay with SF-539, in the assay on Malme-3M and with SN12C was > 100 µM (inactive) each time. Moreover, the GI50 with UACC-62, with NCI-H23, in the assay on NCI-H522, with LXFL 529, in the assay with SNB-75 and with HL-60 was > 100 µM (inactive) throughout.
Regarding `COC(=O)C(=Cc1cc(OC)c(OC)c(OC)c1-c1cc2c(cc1C1(C)OCCS1)OCO2)C(=O)OC` (configuration not stated), the GI50 with HCC 2998 was 32.2 µM (inactive); in the assay with RPMI-8226 it was 28 µM (inactive); with IGROV-1, 16.3 µM (inactive); in the assay with SF-539, 40.6 µM (inactive); with Malme-3M, 37.3 µM (inactive); in the assay on SN12C, 44.5 µM (inactive). Further, the GI50 was 15.5 µM (inactive) in the assay on UACC-62; 19.8 µM (inactive) in the assay on NCI-H23; 15.8 µM (inactive) in the assay on NCI-H522; 24.1 µM (inactive) in the assay with LXFL 529; 29.2 µM (inactive) in the assay with HOP-62; 3.5 µM (inactive) in the assay with HOP-92. Further, the values for the GI50 in the assay on EKVX and in the assay on HL-60 were 35.6 µM (inactive) and 24.9 µM (inactive), respectively.
`COc1ccc(O)cc1` [MEQUINOL]: the GI50 with HCC 2998 is > 100 µM (inactive); in the assay on RPMI-8226, > 100 µM (inactive); in the assay with IGROV-1 it was > 100 µM (inactive); in the assay with SF-539 it was 47.4 µM (inactive); with Malme-3M, 77.6 µM (inactive); in the assay with SN12C it was > 100 µM (inactive). Also, the GI50 in the assay on UACC-62 is 24.8 µM (inactive); in the assay on NCI-H23 it was > 100 µM (inactive); with LXFL 529, 33.6 µM (inactive); in the assay with SNB-75, > 100 µM (inactive); in the assay with HOP-62 it was 40.8 µM (inactive); in the assay on HOP-92 it was 44.1 µM (inactive). Also, the GI50 is > 100 µM (inactive) with EKVX and 44.1 µM (inactive) in the assay on HL-60.
For `O=C1OC(=O)c2c1c(-c1ccccc1)nc1ccccc21`, the GI50 in the assay on HCC 2998, in the assay on RPMI-8226, with IGROV-1, in the assay on SF-539, with Malme-3M and in the assay with SN12C was > 100 µM (inactive) throughout. Further, the GI50 with UACC-62, in the assay on NCI-H23, in the assay on NCI-H522, with LXFL 529, in the assay with SNB-75 and with HOP-62 was > 100 µM (inactive) in each case. Further, the GI50 in the assay with EKVX and in the assay on HL-60 was > 100 µM (inactive) in each case.
For the compound `CC(C)c1ccccc1NC(=O)C(=O)Cc1nc2ccccc2s1`, the GI50 in the assay with HCC 2998, in the assay with IGROV-1, with SF-539, in the assay on Malme-3M, with SN12C and in the assay with UACC-62 was > 100 µM (inactive) each time. In addition, the GI50 in the assay with NCI-H23, in the assay on NCI-H522, with LXFL 529, in the assay on SNB-75, with HOP-62 and with HOP-92 was > 100 µM (inactive) each time. Besides, the GI50 in the assay with EKVX and in the assay on HL-60 was > 100 µM (inactive) in each case.
In the case of `COc1cccc(C2CC23C(=O)NC(=O)NC3=O)c1` (configuration not stated), the GI50 with HCC 2998, with RPMI-8226, in the assay with IGROV-1, in the assay on SF-539, in the assay on Malme-3M and in the assay on SN12C was > 100 µM (inactive) each time. The GI50 in the assay with UACC-62, with NCI-H23, in the assay with NCI-H522, in the assay on LXFL 529, in the assay on HOP-62 and in the assay with HOP-92 was > 100 µM (inactive) throughout. Also, the GI50 in the assay with EKVX and in the assay on HL-60 was > 100 µM (inactive) throughout.
For the compound `O=C(c1ccccc1)n1cc(/C=C/[N+](=O)[O-])c2ccccc21`, the GI50 in the assay with RPMI-8226 is 15.7 µM (inactive); in the assay on IGROV-1, 22.6 µM (inactive); in the assay on SF-539 it was 21.4 µM (inactive); in the assay on Malme-3M, 32.2 µM (inactive); in the assay with SN12C, 39.2 µM (inactive); with UACC-62 it was 20.1 µM (inactive). Moreover, the GI50 in the assay on NCI-H23 is 20.1 µM (inactive); with NCI-H522, 15.1 µM (inactive); in the assay with LXFL 529 it was 18.5 µM (inactive); with SNB-75, 32.7 µM (inactive); in the assay with HOP-62, > 100 µM (inactive); in the assay on HOP-92, 23.8 µM (inactive). Besides, the GI50 was > 100 µM (inactive) in the assay with EKVX and 3.24 µM (inactive) with HL-60.
Turning to `O=C1NC2(O)c3ccccc3C(=O)C2(O)N1c1ccccc1` (configuration not stated), the GI50 in the assay with HCC 2998, in the assay on RPMI-8226, in the assay on IGROV-1, with SF-539, with Malme-3M and with UACC-62 was > 100 µM (inactive) each time. Moreover, the GI50 in the assay on NCI-H23, with NCI-H522, in the assay with LXFL 529, in the assay on SNB-75, in the assay on HOP-92 and in the assay with EKVX was > 100 µM (inactive) throughout. In the assay on HL-60, the GI50 was > 100 µM (inactive).
For the compound `COc1ccc(NC(=O)/C(=N/O)C(C)=O)cc1`, the GI50 in the assay on HCC 2998, in the assay with RPMI-8226, with IGROV-1, in the assay with SF-539, in the assay on Malme-3M and in the assay on SN12C was > 100 µM (inactive) each time. Moreover, the GI50 in the assay with UACC-62, with NCI-H23, in the assay with LXFL 529, with SNB-75, with HOP-62 and in the assay with HOP-92 was > 100 µM (inactive) throughout. Also, the GI50 in the assay with EKVX and with HL-60 was > 100 µM (inactive) throughout.
`CCC12CCCN(Cc3ccccc3)C1c1c(n(C)c3ccccc13)[C@H](C(=O)OC)C2` (some centres not stated): the GI50 in the assay on HCC 2998 is > 239 µM (inactive); in the assay on RPMI-8226, > 239 µM (inactive); in the assay on IGROV-1, > 239 µM (inactive); with SF-539, > 239 µM (inactive); in the assay with Malme-3M, > 239 µM (inactive); with SN12C, 224 µM (inactive). Also, the GI50 in the assay on UACC-62 is > 239 µM (inactive); in the assay with NCI-H23, > 239 µM (inactive); in the assay on NCI-H522 it was 122 µM (inactive); with LXFL 529, > 239 µM (inactive); in the assay with HOP-62, > 239 µM (inactive); with HOP-92 it was 10.6 µM (inactive). Further, the GI50 in the assay on EKVX and in the assay on HL-60 was > 239 µM (inactive) in each case.

(Values after ChEMBL document CHEMBL1201862, “PubChem BioAssay data set” (2004).)
